From ChEMBL document CHEMBL4393696, “5-Arylisothiazol-3(2H)-one-1,(1)-(di)oxides: A new class of selective tumor-associated carbonic anhydrases (hCA IX and XII) inhibitors” (Eur J Med Chem, 2019) come the findings set out here.

What is called Ki is the dissociation constant of the complex between target and ligand, obtained from inhibition or displacement.

Assay [1] has as its target Carbonic anhydrase 2 (Homo sapiens, UniProt P00918). The assay can be described thus: Inhibition of human carbonic anhydrase 2 assessed as inhibitory constant preincubated for 15 mins by stopped-flow CO2 hydration assay.
In assay [2] the target is Carbonic anhydrase 9 (Homo sapiens, UniProt Q16790). Description: Inhibition of human carbonic anhydrase 9 assessed as inhibitory constant preincubated for 15 mins by stopped-flow CO2 hydration assay.
For assay [3], the target named is Carbonic anhydrase 1 (Homo sapiens, UniProt P00915). Description: Inhibition of human carbonic anhydrase 1 assessed as inhibitory constant preincubated for 15 mins by stopped-flow CO2 hydration assay.
Assay [4] deals with Carbonic anhydrase 12 (Homo sapiens, UniProt O43570). Description: Inhibition of human carbonic anhydrase 12 assessed as inhibitory constant preincubated for 15 mins by stopped-flow CO2 hydration assay.

A value given as a limit tells only on which side of the number the result lay.

Carbonic anhydrase 1, sequence (P00915 whole entry): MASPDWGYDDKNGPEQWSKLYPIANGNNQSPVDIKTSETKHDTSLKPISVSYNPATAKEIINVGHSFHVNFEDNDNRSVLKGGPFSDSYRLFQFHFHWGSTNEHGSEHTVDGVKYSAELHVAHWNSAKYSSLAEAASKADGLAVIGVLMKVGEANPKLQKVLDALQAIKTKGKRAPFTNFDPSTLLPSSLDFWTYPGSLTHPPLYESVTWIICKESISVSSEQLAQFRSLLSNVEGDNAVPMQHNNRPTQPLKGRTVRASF
Carbonic anhydrase 12, sequence (O43570 whole entry): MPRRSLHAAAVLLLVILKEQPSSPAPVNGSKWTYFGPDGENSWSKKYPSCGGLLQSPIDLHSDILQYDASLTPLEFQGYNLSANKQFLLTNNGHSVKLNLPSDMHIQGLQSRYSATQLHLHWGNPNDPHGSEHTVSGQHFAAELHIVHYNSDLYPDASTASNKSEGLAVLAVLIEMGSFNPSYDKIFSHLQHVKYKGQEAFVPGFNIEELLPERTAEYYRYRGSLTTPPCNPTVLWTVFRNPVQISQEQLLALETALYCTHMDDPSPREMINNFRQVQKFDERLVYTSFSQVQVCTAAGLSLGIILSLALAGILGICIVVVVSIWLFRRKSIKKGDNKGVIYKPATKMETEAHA

Consider `CC(C)(C)N1C(=O)C=C(Cl)S1(=O)=O`, for which the Ki is more than 10000 nM in assay [1] and 227 nM in assay [2].

As for `CC(C)(C)N1C(=O)C=C(c2cccs2)S1(=O)=O`, the values for the Ki in assay [1], in assay [3] and in assay [2] were more than 10000 nM, more than 10000 nM and 221 nM, respectively.

Turning to `CC(C)(C)n1sc(Cl)cc1=O`, the Ki is more than 10000 nM in assay [1] and 98.5 nM in assay [2].

For `CC(C)(C)n1c(=O)cc(-c2cc3ccccc3o2)[s+]1[O-]` (stereo not drawn), the results for the Ki in assay [1] and in assay [2] were more than 10000 nM and 251 nM, respectively.

On to `COc1cc(-c2cc(=O)n(C(C)(C)C)[s+]2[O-])cc(OC)c1OC` (stereo not drawn), for which the values for the inhibitory constant (Ki) in assay [1], in assay [3] and in assay [2] were more than 10000 nM, more than 10000 nM and 237 nM, respectively.

Regarding `CC(C)(C)OC(=O)n1c(-c2cc(=O)n(C(C)(C)C)[s+]2[O-])cc2ccccc21` (stereo not drawn), the values for the Ki in assay [1], in assay [3] and in assay [2] were more than 10000 nM, more than 10000 nM and 47.7 nM, respectively.

Turning to `CC(C)(C)n1c(=O)cc(-c2cc3ccccc3n2S(=O)(=O)c2ccccc2)[s+]1[O-]` (stereo not drawn), the values for the Ki in assay [1], in assay [3] and in assay [2] were more than 10000 nM, more than 10000 nM and 40.3 nM, respectively.

On to `CC(C)(C)n1c(=O)cc(Cl)[s+]1[O-]` (stereo not drawn), for which the Ki in assay [1] was more than 10000 nM; in assay [3] it was 454 nM; in assay [2], 171 nM; in assay [4] it was 53.6 nM.

Turning to `CC(C)(C)n1c(=O)cc(-c2ccc3ccccc3c2)[s+]1[O-]` (stereo not drawn), the Ki in assay [1] was more than 10000 nM; in assay [2], 16 nM.

Turning to `CC(C)(C)n1c(=O)cc(-c2cccs2)[s+]1[O-]` (stereo not drawn), the Ki is more than 10000 nM in assay [1], more than 10000 nM in assay [3] and 48.6 nM in assay [2].

As for `CC(C)(C)N1C(=O)C=C(c2cn(S(=O)(=O)c3ccccc3)c3ccccc23)S1(=O)=O`, the Ki is 81.8 nM in assay [1], more than 10000 nM in assay [3] and 4.3 nM in assay [2].

Consider `O=c1cc(-c2ccccc2)[s+]([O-])[nH]1` (stereo not drawn), for which the Ki in assay [1] is more than 10000 nM; in assay [3], more than 10000 nM; in assay [2], 45.5 nM.

As to `CC(C)(C)N1C(=O)C=C(c2cc3ccccc3n2S(=O)(=O)c2ccccc2)S1(=O)=O`, the Ki was more than 10000 nM in assay [1], more than 10000 nM in assay [3] and 347 nM in assay [2].

As to `O=C1C=C(c2ccccc2)S(=O)(=O)N1`, the Ki was more than 10000 nM in assay [1], more than 10000 nM in assay [3] and 40.3 nM in assay [2].

Take `CC(C)(C)n1c(=O)cc(-c2cn(S(=O)(=O)c3ccccc3)c3ccccc23)[s+]1[O-]` (stereo not drawn): the Ki in assay [1] is 2110 nM; in assay [3], more than 10000 nM; in assay [2], 8.8 nM.

Turning to `O=c1cc(-c2cn(S(=O)(=O)c3ccccc3)c3ccccc23)[s+]([O-])[nH]1` (stereo not drawn), the Ki in assay [1] is more than 10000 nM; in assay [3], more than 10000 nM; in assay [2], 101 nM.

As to `CC(C)(C)n1c(=O)cc(-c2cc3ccccc3s2)[s+]1[O-]` (stereo not drawn), the Ki in assay [1] is more than 10000 nM; in assay [2] it was 133 nM.

On to `CC(C)(C)N1C(=O)C=C(c2ccccc2)S1(=O)=O`, for which the Ki in assay [1] was 1570 nM; in assay [3], more than 10000 nM; in assay [2], 28.4 nM.

Consider `CC(C)(C)n1c(=O)cc(-c2ccccc2)[s+]1[O-]` (stereo not drawn), for which the Ki is more than 10000 nM in assay [1], more than 10000 nM in assay [3] and 4.5 nM in assay [2].
